Laboratory results reported in ChEMBL document CHEMBL1157539, “Thousands of chemical starting points for antimalarial lead identification” (Nature, 2010).

What follows are compounds tested on Plasmodium falciparum (assay: GSK_TCMDC: Inhibition of Plasmodium falciparum 3D7 in whole erythrocytes, using parasite LDH activity as an index of growth.). Settings: Plasmodium falciparum, 3D7.
Format: functional, organism-based

Row | Compound | XC50
1 | Cc1cccc(CN2CCCN(Cc3ccc(C(=O)Nc4ccc(C)c(F)c4)cc3)CC2)c1 | 1060 nM
2 | NOCCCOc1ccccc1 | 321 nM
3 | Cc1nc(N)nc(N)c1CCCOc1ccccc1Br | 424 nM
4 | O=C(Nc1ccc2c(c1)OCCO2)c1cc(-c2cccnc2)nc2ccc(Cl)cc12 | 714 nM
5 | Cc1cc(F)ccc1[C@H]1CNCCN1C(=O)N(C)[C@@H](C)c1cc(C(F)(F)F)cc(C(F)(F)F)c1 | 232 nM
6 | COc1ccc(CCN2CCC(Nc3nc4ccccc4n3CCc3ccc(OC)cc3)CC2)cc1 | 657 nM
7 | COc1ccc2[nH]cc(C3CCN(CCCCNC(=O)c4ccc(NC(=O)c5ccc(Cl)cc5)cc4)CC3)c2c1 | 1020 nM
8 | Cc1nnsc1C(=O)Nc1ccc(-c2cccc(-c3nc4cccc(C)c4[nH]3)c2)cc1 | 630 nM
9 | CN1CCN(c2cccc(Nc3nccc(NCC(O)c4ccccc4)n3)c2)CC1 (stereo not given) | 718 nM
10 | CC(C)NCc1ccc(-c2cccc(-c3nc4cc(F)ccc4[nH]3)c2)cc1 | 405 nM
11 | O=C(COC(=O)c1cccc(S(=O)(=O)N2CCc3ccccc32)c1)NNC(=O)c1cccs1 | 1250 nM
12 | CC(C)CNCc1ccc(-c2ccc(CN(C(=O)NC3CCCCC3)C3CCN(Cc4ccccc4)CC3)cc2)cc1 | 785 nM
13 | O=C(Nc1cccc(CN2CCCN(CC3CC3)CC2)c1)c1ccc(Cl)c(Cl)c1 | 1030 nM
14 | CC(C)C[C@@H](CNC[C@H](CC(C)C)NC(=O)OC(C)(C)C)NC(=O)OC(C)(C)C | 1250 nM
15 | Cc1nn(-c2ccccc2)c2c1C(c1ccc(C(C)C)cc1)N1C(=N2)N(Cc2ccccc2)c2ccccc21 (stereo not given) | 776 nM
16 | CCOC(=O)c1cc(C(=O)NCCCCN2CCC(c3ccc4c(c3OC)CCCC4)CC2)ccc1-c1ccc(C(F)(F)F)cc1 | 707 nM
17 | COc1ccccc1C1CC(c2ccccc2)=NN1C(=O)c1ccco1 (stereo not given) | 397 nM
18 | CN(C)CCC1CCN(CCS(=O)(=O)c2cccc(Nc3ccc(-c4cccc(F)c4)cn3)c2)CC1 | 1070 nM
19 | FC(F)(F)c1ccc2[nH]c(-c3ccc(-c4ccc(CNCCN5CCNCC5)cc4)s3)nc2c1 | 910 nM
20 | CC(C)CN1C(=O)C(c2ccc(F)c(F)c2)=C(O)C1c1ccccc1 (stereo not given) | 185 nM
21 | COc1ccc2nccc([C@@H](O)CN3CCC(NC(=O)Cn4nc(-c5ccc(C(F)(F)F)cc5)ccc4=O)CC3)c2c1 | 737 nM
22 | COc1cccc(-c2cnc(-c3ccncc3)nc2C2CCN(Cc3ccc(NC(C)=O)cc3)CC2)c1 | 1500 nM
23 | O=C(NCc1cccc2ccccc12)C1CCCN(C(=O)c2ccc(O)c(-c3ccc(Cl)c(Cl)c3)c2)C1 (stereo not given) | 1030 nM
24 | Oc1ccc(CCNc2nc(NCCCOc3ccccc3-c3ccc(F)cc3)nc(N3CCNCC3)n2)cc1 | 1080 nM

Row | Compound | XC50
25 | COc1cc(F)c2ncc(F)c(CCN3C[C@H](CNCc4ccc5c(n4)NC(=O)CS5)[C@H](O)C3)c2c1 | 462 nM
26 | CC(C)CCN1CCCN(Cc2cccc(NC(=O)c3cc4ccccc4s3)c2)CC1 | 917 nM
27 | OCCN1CCN(Cc2ccc(-c3cccc(-c4nc5cc(C(F)(F)F)ccc5[nH]4)c3)cc2)CC1 | 642 nM
28 | COc1ccccc1C1CCN(C2CCC(NC(=O)c3cc(-c4ccc(Cl)cc4)cs3)CC2)CC1 (stereo not given) | 383 nM
29 | COc1ccc2c(ccc3c2ncc2c(=O)n(-c4ccccc4)[nH]c23)c1 | 520 nM
30 | O=C(/C=C/c1ccc(Cl)c(Cl)c1)NCCCCCN1CCCC(CNC(=O)Nc2ccc(C(F)(F)F)cc2)C1 (stereo not given) | 668 nM
31 | O=C(C=Cc1ccc(Cl)c(Cl)c1)NCCCCCN1CCC(CCNC(=O)c2cccc3ccccc23)CC1 | 1590 nM
32 | Cc1cccn2c(=O)c3cc(C(=O)NCCN4CCOCC4)c(=N)n(CCc4ccccc4)c3nc12 | 468 nM
33 | CC(C)CNCc1ccc(-c2cccc(-c3nc4ccccc4[nH]3)c2)cc1 | 626 nM
34 | Cc1cc(N[C@@H](Cc2ccccc2)C(=O)NCCc2ccccc2)nc(NCC2CCCCC2)n1 | 917 nM
35 | CC(C)CNC(=O)c1cncc(-c2ccc(CN3CCC(N4CCCC4)CC3)cc2)c1 | 689 nM
36 | CC(C(=O)N1CCCC1)N1CCN(C(c2ccccc2)c2ccccc2)CC1 (stereo not given) | 1100 nM
37 | C=CCC(C(=O)Nc1ccnc2ccc(OC)cc12)C1CCN(CCCCCCC)CC1 (stereo not given) | 242 nM
38 | CCn1c(-c2nonc2N)nc2c(-c3cccc(Cl)c3)ncc(OCCCNCCc3c[nH]cn3)c21 | 983 nM
39 | O=C(/C=C/c1ccc(Cl)c(Cl)c1)NCCCCCCN1CCN(C(=O)Nc2cc(F)cc(F)c2)CC1 | 1070 nM
40 | CC(C)Cc1ccc(N2CCN(CCCCNC(=O)c3ccc(NC(=O)c4cc(C(F)(F)F)cc(C(F)(F)F)c4)cc3)CC2)cc1 | 179 nM
41 | COc1ccc2nccc(N3CCC(O)(CCNCc4ccc5c(n4)NC(=O)CS5)CC3)c2n1 | 648 nM
42 | COc1ccc(OCCCON2C(=N)N=C(N)NC2(C)C)cc1 | 3.2 nM
43 | CC(=O)Nc1ccc(CN2CCC(NC(=O)c3ccc(-c4cccc(Cl)c4)s3)CC2)cc1 | 792 nM
44 | CCCCCCCn1c(=O)c(C(=O)Nc2c(C)cccc2C)c(O)c2ccccc21 | 910 nM
45 | Nc1nc(N)c2c(Cc3ccc(Br)cc3)cccc2n1 | 775 nM
46 | CCCCNCc1ccc(OCc2cccc(COc3ccc(CNCCCC)cc3I)c2)c(I)c1 | 1120 nM
47 | CN(Cc1ccccc1)C1CCCN(c2cc(NC(=O)c3cccs3)ccn2)C1 (stereo not given) | 1130 nM
48 | COc1ccc2c(NN=Cc3ccccc3)ccnc2c1 | 130 nM

Row | Compound | XC50
49 | O=C(Nc1ccc(OC2CCN(Cc3ccsc3)CC2)c(Cl)c1)c1ccco1 | 784 nM
50 | CC(C)c1ccc(NC(=O)NC2CCN(CCCCCN(C)C(=O)/C=C/c3ccc(Cl)c(Cl)c3)C2)cc1 (stereo not given) | 830 nM
51 | COc1ccc(Cn2cncc2CN(CCC(C)C)C(=O)c2ccc(Cl)nc2Cl)cc1 | 1040 nM
52 | C(=NN=c1cc(-c2ccccc2)[nH]c2ccccc12)c1cccnc1 | 1230 nM
53 | CC(CN1CCN(C)CC1)C(=O)Nc1cccc(-c2ccc(-c3nc4cc(C(F)(F)F)ccc4[nH]3)cc2)c1 (stereo not given) | 607 nM
54 | O=C(C=Cc1ccc(F)cc1)N1CCN(S(=O)(=O)c2ccc(Cl)cc2)CC1 | 634 nM
55 | N=C(N)Nc1ccc(NC(=O)Nc2ccc(NC(=N)N)cc2)cc1 | 386 nM
56 | Cc1c(Cl)cccc1S(=O)(=O)N1CCCCC(c2ccc(C(F)(F)F)cc2)=N1 | 788 nM
57 | Cc1ccc(C(=O)Cn2nc(-c3ccc(C)c(S(=O)(=O)N4CCCC4)c3)ccc2=O)cc1 | 513 nM
58 | Clc1cccc(Cl)c1CCNCC1CCN(CC2CCCCC2)CC1 | 212 nM
59 | N=C(N)Nc1nc(-c2cccc(NC(=O)C(F)(F)F)c2)cs1 | 1050 nM
60 | Cc1cc(=O)[nH]c(-n2nc(C)cc2NC(=O)C2(c3ccc(Cl)cc3)CCCC2)n1 | 288 nM
61 | O=[N+]([O-])c1cccc(CNC2CCN(Cc3ccc(C(F)(F)F)cc3)CC2)c1 | 736 nM
62 | CN1CCC(Oc2cc(NC(=O)Nc3ccc(-c4ccncc4)c(Cl)c3)ccc2Cl)CC1 | 530 nM
63 | Cc1cc(NCCc2ccccc2)nc(NC(=N)Nc2ccccc2Cl)n1 | 789 nM
64 | COc1cc2nc(N3CCN(C(=O)c4ccc(N(C(=O)OC(C)(C)C)C(=O)OC(C)(C)C)cc4)CC3)nc(N)c2cc1OC | 1000 nM
65 | O=C(NC1CCC(N2CCC(O)(c3ccc(F)cc3)CC2)CC1)c1cc2ccccc2[nH]1 (stereo not given) | 736 nM
66 | Cc1cc(C(=O)NC2CCN(Cc3ccccc3)CC2)ccc1-c1nc2ccc(C(F)(F)F)cc2[nH]1 | 891 nM
67 | CCN1CCC(NCc2ccc(-c3ccc(Cl)cc3)cc2)CC1 | 1020 nM
68 | CCCN1CCC(NCc2cn(C)nc2-c2ccc(Oc3ccccc3)cc2)CC1 | 1440 nM
69 | Cc1nc(O)c2c(ccc3ccc(CNc4ccc(C(=O)N[C@@H](CCC(=O)O)C(=O)O)cc4)cc32)n1 | 177 nM
70 | O=C(/C=C/c1ccc(Cl)c(Cl)c1)NC1CCC(CN2CCC(Cc3cc4ccccc4[nH]3)CC2)CC1 (stereo not given) | 508 nM
